Read-outs that look alike come from different tables or passages of the source.
Tests used:
Assay type in all cases: cell-based
PLK1 = target: T1, PLK1 (Homo sapiens, UniProt P53350); test: Luciferase assay for PLK1 in HeLa LgBit (Plk1-HiBit KI) cell line; settings: compound 300 nM, luminescence after 9 hours
T1 construct: endogenous in cells; host or cells: HeLa LgBit (Plk1-HiBit KI): HeLa stably expressing LgBit, with HiBit knocked in at the endogenous Plk1 locus by CRISPR/Cas9
Protocol: 2. Luciferase Assay for PLK1
(1) Preparation and Culture of HeLa LgBit (Plk1-HiBit KI) Cell Line
A HeLa cell line in which the LgBit vector was transfected and expressed stably was prepared. Then, after constructing gRNA and donor to express the HiBit amino acid sequence behind the C-terminal of the Plk1 gene, which was inherent in the cell, it was inserted into the cell together with a vector capable of expressing CRISPR/Cas9. Only the cells in which the insertion was completed and knock-in had progressed were selected, sub-cultured and used.
(2) Treatment of Compounds of the Present Invention and Method of Luciferase Assay
In the case of HeLa LgBit (Plk1-HiBit KI), the compounds were treated after being released after thymidine block, and the process was as follows. Thymidine (Sigma-Aldrich Cat. No. T9250-5G) was completely dissolved in DW and used in the experiment. For thymidine block, the products were treated with 2 mM of thymidine and then incubated for 24 hours. For release and chemical treatment, the medium was suctioned and washed with 1×PBS. TrypLE™ was added and incubated in 37° C. CO2 incubator for 5 min. Cells neutralized by adding complete media were counted through a counter. For each well of a 96-well culture plate (SPL), 3.3×10^4 cells and a total medium volume of 150 μL were seeded and incubated in a CO2 incubator.
Each cell line was incubated in a CO2 incubator for 18 hours, and Endurazine was added to each well to make up 4% of the total volume. After adding the compound of the present invention in a 96-well white plate (SPL) to a concentration of 300 nM, the wavelength of the plate reader (BMG Labtech, CLARIOstar Plus) was set to […], and then the luminescence was tracked in real time.
In Table 2, Activity represents the ratio of the luminescence value of each Exemplary Compound treatment group to DMSO treatment group (+++: <0.3, ++<0.6, +<0.7).

MRC-5 cell line = test: Cell viability assay for MRC-5 cell line (EZ-Cytox cytotoxicity experiment); settings: Homo sapiens, MRC5, 120 h, MRC-5 normal cell line, 5 days
Protocol: 4. Cell Viability Assay for MRC-5 Cell Line
(1) Culture of MRC-5 Cell Line
Passage of cultured cells was maintained within P15.
(2) Treatment of Compounds of the Present Invention
Then, it was cultured in 37° C.
(3) Cytotoxicity Experiment
CO2 incubator for 4 hours.

H526 cell line = test: Cell viability assay for NCI-H526 cell line (EZ-Cytox); settings: Homo sapiens, NCI-H526, 120 h; H526 cells, 3-fold dilutions 3000 nM to 0.46 nM, 5 days
Protocol: (1) Culture of NCI-H526 Cell Line
(2) Treatment of Compounds of the Present Invention and Method of Cell Viability Assay
After treating the compound to each well to make the total volume of 200 μL, it was cultured in a CO2 incubator (Thermo Fisher Science, Cat. No. 4111) for 5 days.
The absorbance of the completely cultured sample was measured by setting the wavelength of a plate reader (BMG Labtech, CLARIOstar Plus) to […], and was measured after shaking for 3 minutes in a plate reader before measurement.
In Table 3, Activity represents IC50 value of each Exemplary Compound treatment group to H526 cell line (A: <30 nM, B: <50 nM, C: <100 nM, D: <200 nM, E: <400 nM).

[1] = highest concentration 10000 nM, N.D. = no cytotoxicity until 10 μM, read-out: Activity: IC50 value to MRC-5 cell line, N.D. cells

T1 sequence (P53350 whole entry): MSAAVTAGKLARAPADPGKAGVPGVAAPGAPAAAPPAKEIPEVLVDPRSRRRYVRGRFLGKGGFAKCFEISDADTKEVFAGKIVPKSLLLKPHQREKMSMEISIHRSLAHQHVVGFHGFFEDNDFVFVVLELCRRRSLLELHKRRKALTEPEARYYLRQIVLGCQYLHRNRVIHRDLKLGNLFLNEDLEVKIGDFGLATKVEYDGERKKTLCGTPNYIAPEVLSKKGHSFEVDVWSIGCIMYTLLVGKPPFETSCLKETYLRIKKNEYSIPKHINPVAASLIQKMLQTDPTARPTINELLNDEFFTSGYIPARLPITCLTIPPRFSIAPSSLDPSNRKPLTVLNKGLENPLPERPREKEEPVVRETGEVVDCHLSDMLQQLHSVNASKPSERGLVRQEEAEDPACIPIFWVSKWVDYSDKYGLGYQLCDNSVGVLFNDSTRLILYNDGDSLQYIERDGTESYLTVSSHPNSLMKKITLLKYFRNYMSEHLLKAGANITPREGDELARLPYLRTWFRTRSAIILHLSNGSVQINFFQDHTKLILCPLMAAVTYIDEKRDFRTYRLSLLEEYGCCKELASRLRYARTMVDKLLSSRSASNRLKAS

Activity: ratio of the luminescence value of each Exemplary Compound treatment group to DMSO treatment group (PLK1)	Compound	IC50 (MRC-5 cell line; [1])	IC50 (H526 cell line)	IC50 (MRC-5 cell line; 3-fold dilutions 10000 nM to 1.52 nM, Exemplary Compounds, numeric values, read-out: Activity: IC50 value (nM) to MRC-5 cell line)
++ (++<0.6)	COc1cc(C(=O)NC2CCN(C(=O)CCN3CCN(c4cccc(NC5CCC(=O)NC5=O)c4)CC3)CC2)ccc1Nc1ncc2c(n1)N(C1CCCC1)CC(F)(F)C(=O)N2C (stereo not drawn) [Compound 14, 4-((9-cyclopentyl-7,7-difluoro-5-methyl-6-oxo-6,7,8,9-tetrahydro-5H-pyrimido[4,5-b][1,4]diazepin-2-yl)amino)-N-(1-(3-(4-(3-((2,6-dioxopiperidin-3-yl)amino)phenyl)piperazin-1-yl)propanoyl)piperidin-4-yl)-3-methoxybenzamide]	> 10000 nM	< 0.03 µM	–
++ (++<0.6)	COc1cc(C(=O)NC2CCN(C(=O)CCN3CCN(c4cccc(N(C)C5CCC(=O)NC5=O)c4)CC3)CC2)ccc1Nc1ncc2c(n1)N(C1CCCC1)CC(F)(F)C(=O)N2C (stereo not drawn) [Compound 15, 4-((9-cyclopentyl-7,7-difluoro-5-methyl-6-oxo-6,7,8,9-tetrahydro-5H-pyrimido[4,5-b][1,4]diazepin-2-yl)amino)-N-(1-(3-(4-(3-((2,6-dioxopiperidin-3-yl)(methyl)amino)phenyl)piperazin-1-yl)propanoyl)piperidin-4-yl)-3-methoxybenzamide]	> 10000 nM	< 0.05 µM	–
+++ (+++: <0.3)	COc1cc(C(=O)NC2CCN(C(=O)CCN3CCN(c4ccc(N(C)C5CCC(=O)NC5=O)cc4F)CC3)CC2)ccc1Nc1ncc2c(n1)N(C1CCCC1)CC(F)(F)C(=O)N2C (stereo not drawn) [Compound 16, 4-((9-cyclopentyl-7,7-difluoro-5-methyl-6-oxo-6,7,8,9-tetrahydro-5H-pyrimido[4,5-b][1,4]diazepin-2-yl)amino)-N-(1-(3-(4-(4-((2,6-dioxopiperidin-3-yl)(methyl)amino)-2-fluorophenyl)piperazin-1-yl)propanoyl)piperidin-4-yl)-3-methoxybenzamide]	> 10000 nM	< 0.03 µM	–
++ (++<0.6)	COc1cc(C(=O)NN2CCC(CN3CCN(c4ccc(NC5CCC(=O)NC5=O)cc4F)CC3)CC2)ccc1Nc1ncc2c(n1)N(C(C)C)CC(F)(F)C(=O)N2C (stereo not drawn) [Compound 17, 4-((7,7-difluoro-9-isopropyl-5-methyl-6-oxo-6,7,8,9-tetrahydro-5H-pyrimido[4,5-b][1,4]diazepin-2-yl)amino)-N-(4-((4-(4-((2,6-dioxopiperidin-3-yl)amino)-2-fluorophenyl)piperazin-1-yl)methyl)piperidin-1-yl)-3-methoxybenzamide]	> 10000 nM	< 0.05 µM	–
+ (+<0.7)	COc1cc(C(=O)NN2CCC(CN3CCN(c4c(F)cc(NC5CCC(=O)NC5=O)cc4F)CC3)CC2)ccc1Nc1ncc2c(n1)N(C(C)C)CC(F)(F)C(=O)N2C (stereo not drawn) [Compound 18, 4-((7,7-difluoro-9-isopropyl-5-methyl-6-oxo-6,7,8,9-tetrahydro-5H-pyrimido[4,5-b][1,4]diazepin-2-yl)amino)-N-(4-((4-(4-((2,6-dioxopiperidin-3-yl)amino)-2,6-difluorophenyl)piperazin-1-yl)methyl)piperidin-1-yl)-3-methoxybenzamide]	> 10000 nM	< 0.03 µM	–
+ (+<0.7)	COc1cc(C(=O)NN2CCC(CN3CCN(c4ccc(NC5CCC(=O)NC5=O)cc4Cl)CC3)CC2)ccc1Nc1ncc2c(n1)N(C(C)C)CC(F)(F)C(=O)N2C (stereo not drawn) [Compound 19, N-(4-((4-(2-chloro-4-((2,6-dioxopiperidin-3-yl)amino)phenyl)piperazin-1-yl)methyl)piperidin-1-yl)-4-((7,7-difluoro-9-isopropyl-5-methyl-6-oxo-6,7,8,9-tetrahydro-5H-pyrimido[4,5-b][1,4]diazepin-2-yl)amino)-3-methoxybenzamide]	> 10000 nM	< 0.05 µM	–
++ (++<0.6)	COc1cc(C(=O)NC2CCN(CC3CN(c4ccc(NC5CCC(=O)NC5=O)cc4F)C3)CC2)ccc1Nc1ncc2c(n1)N(C(C)C)CC(F)(F)C(=O)N2C (stereo not drawn) [Compound 20, 4-((7,7-difluoro-9-isopropyl-5-methyl-6-oxo-6,7,8,9-tetrahydro-5H-pyrimido[4,5-b][1,4]diazepin-2-yl)amino)-N-(1-((1-(4-((2,6-dioxopiperidin-3-yl)amino)-2-fluorophenyl)azetidin-3-yl)methyl)piperidin-4-yl)-3-methoxybenzamide]	> 10000 nM	< 0.05 µM	–
++ (++<0.6)	COc1cc(C(=O)NN2CCC(CN3CCN(c4ccc(NC5CCC(=O)NC5=O)cc4C(F)(F)F)CC3)CC2)ccc1Nc1ncc2c(n1)N(C(C)C)CC(F)(F)C(=O)N2C (stereo not drawn) [Compound 21, 4-((7,7-difluoro-9-isopropyl-5-methyl-6-oxo-6,7,8,9-tetrahydro-5H-pyrimido[4,5-b][1,4]diazepin-2-yl)amino)-N-(4-((4-(4-((2,6-dioxopiperidin-3-yl)amino)-2-(trifluoromethyl)phenyl)piperazin-1-yl)methyl)piperidin-1-yl)-3-methoxybenzamide]	> 10000 nM	< 0.1 µM	–
+++ (+++: <0.3)	COc1cc(C(=O)NN2CCC(CCN3CCN(c4ccc(NC5CCC(=O)NC5=O)cc4F)CC3)CC2)ccc1Nc1ncc2c(n1)N(C1CCCC1)CC(F)(F)C(=O)N2C (stereo not drawn) [Compound 22, 4-((9-cyclopentyl-7,7-difluoro-5-methyl-6-oxo-6,7,8,9-tetrahydro-5H-pyrimido[4,5-b][1,4]diazepin-2-yl)amino)-N-(4-(2-(4-(4-((2,6-dioxopiperidin-3-yl)amino)-2-fluorophenyl)piperazin-1-yl)ethyl)piperidin-1-yl)-3-methoxybenzamide]	> 10000 nM	< 0.03 µM	–
+++ (+++: <0.3)	COc1cc(C(=O)NN2CCC(CCN3CCN(c4ccc(N(C)C5CCC(=O)NC5=O)cc4F)CC3)CC2)ccc1Nc1ncc2c(n1)N(C1CCCC1)CC(F)(F)C(=O)N2C (stereo not drawn) [Compound 23, 4-((9-cyclopentyl-7,7-difluoro-5-methyl-6-oxo-6,7,8,9-tetrahydro-5H-pyrimido[4,5-b][1,4]diazepin-2-yl)amino)-N-(4-(2-(4-(4-((2,6-dioxopiperidin-3-yl)(methyl)amino)-2-fluorophenyl)piperazin-1-yl)ethyl)piperidin-1-yl)-3-methoxybenzamide]	> 10000 nM	< 0.03 µM	–
+++ (+++: <0.3)	COc1cc(C(=O)NC2CC3(CCN(CC4CCN(c5ccc(NC6CCC(=O)NC6=O)cc5F)CC4)CC3)C2)ccc1Nc1ncc2c(n1)N(C(C)C)CC(F)(F)C(=O)N2C (stereo not drawn) [Compound 24, 4-((7,7-difluoro-9-isopropyl-5-methyl-6-oxo-6,7,8,9-tetrahydro-5H-pyrimido[4,5-b][1,4]diazepin-2-yl)amino)-N-(7-((1-(4-((2,6-dioxopiperidin-3-yl)amino)-2-fluorophenyl)piperidin-4-yl)methyl)-7-azaspiro[3.5]nonan-2-yl)-3-methoxybenzamide]	–	< 0.03 µM	23200 nM

From US20250101025A1, “NOVEL PLK1 DEGRADATION INDUCING COMPOUND” (UPPTHERA, INC., priority 2021, published 2025)
